Results as given in PubChem BioAssay (NCI).
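All cell lines were grown in 96-well plates and treated with compound for 48 hours. At the GI50, growth is halved. TGI marks complete inhibition of growth.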

Assays:
Assay in all cases: NCI tumour cell line growth inhibition, 48 h
[1] = tested on: HOP-92 NSCLC
[2] = tested on: OVCAR-3 ovarian
[3] = tested on: UACC-257 melanoma
[4] = tested on: HCT-116 colon
[5] = tested on: M14 melanoma
[6] = tested on: OVCAR-5 ovarian
[7] = tested on: OVCAR-4 ovarian
[8] = tested on: COLO 205 colon
[9] = tested on: HCC-2998 colon
[10] = tested on: RXF 393 renal

| Structure (SMILES) | TGI [1] [µM] | TGI [2] [µM] | TGI [3] [µM] | TGI [4] [µM] | TGI [5] [µM] | TGI [6] [µM] | TGI [7] [µM] | TGI [8] [µM] | TGI [9] [µM] | TGI [10] [µM] | GI50 [3] [µM] | GI50 [5] [µM] | GI50 [6] [µM] | GI50 [8] [µM] | GI50 [10] [µM] | GI50 [1] [µM] | GI50 [2] [µM] | GI50 [4] [µM] | GI50 [7] [µM] | GI50 [9] [µM] |
| --- | --- | --- | --- | --- | --- | --- | --- | --- | --- | --- | --- | --- | --- | --- | --- | --- | --- | --- | --- | --- |
| c1ccc(-c2nnc(SCc3c[nH]c4ccccc34)n2-c2ccccc2)cc1 | 79.3 | > 100 | > 100 | > 100 | > 100 | > 100 | > 100 | > 100 | > 100 | 52.5 |  |  |  |  |  |  |  |  |  |  |
| O=C(Nc1c(C(=O)NC2CCCCC2)[nH]c(=O)[nH]c1=O)c1ccc(Cl)cc1 | > 100 | > 100 |  | > 100 | > 100 | > 100 | > 100 | > 100 |  | > 100 |  |  |  |  |  |  |  |  |  |  |
| COC1=CC(=O)c2c(cc(COP(=O)(OCC3OC(n4cc(F)c(=O)[nH]c4=O)CC3O)N(C)CCCCCl)n2C)C1=O (centres undefined) | 12.3 | 14.5 | > 47.5 | 28.5 | 12.8 | 41.1 | > 34.8 | > 39.8 |  | 4.71 |  |  |  |  |  |  |  |  |  |  |
| C=C1C(=O)O[C@@H]2[C@H]1CCC(C)=C1C=CC(=O)[C@]12C | 18.5 | 31 | 27.1 | 26.7 |  | 31.8 |  |  | 27.8 | 29.8 |  |  |  |  |  |  |  |  |  |  |
| N=C(N)SCc1cc(Cl)cc(Cl)c1O | 35.1 | 31.4 | 31.6 | 29.8 | 42.1 | 40.3 | 51.6 | 33 | 31.9 | 46.8 |  |  |  |  |  |  |  |  |  |  |
| Cc1ccc(C2N=C(N)NC3=C2CCOc2c3ccc3ccccc23)cc1 (centres undefined) | 57.5 | 21 | > 65.7 | 12.3 | > 55.9 | > 77.1 | > 83.7 | > 61.6 | 76.4 | 97.9 |  |  |  |  |  |  |  |  |  |  |
| O=C(O)C1CCC(=O)N1S(=O)(=O)c1ccccc1 (centres undefined) | > 100 | > 100 | > 100 | > 100 |  | > 100 | > 100 | > 100 | > 100 | > 100 |  |  |  |  |  |  |  |  |  |  |
| COc1ccc(-c2nn(-c3cccc(NC(=O)Nc4ccccc4)c3)cc2-c2ccncc2)cc1Cl |  |  | 6.33 |  | 4.85 | 8.79 |  | 6.69 |  | 6.47 | 2.5 | 2.26 | 2.5 | 2.56 | 1.97 |  |  |  |  |  |
| CCOc1ccc(/C(C=O)=C(\Cl)c2ccc(OC)c(OC)c2)cc1 | > 100 | > 100 |  | > 100 | > 100 |  |  | > 100 |  |  |  |  |  |  |  |  |  |  |  |  |
| O=c1cc(N2CCCC2)[nH]c(=O)n1-c1ccc(F)cc1 | > 100 | > 100 | > 100 | > 100 | > 100 | > 100 | > 100 | > 100 | > 100 | > 100 |  |  |  |  |  |  |  |  |  |  |
| Clc1ccc(CNc2nc(Cl)c3[nH]cnc3n2)cc1Cl |  | > 100 | 48.9 | 60.7 | 70.3 | > 100 | > 100 | 51.8 | 53.2 | > 100 |  |  |  |  |  |  |  |  |  |  |
| Cc1cc(S(=O)(=O)NC2=NC(c3ccccc3)c3cc(Cl)ccc3N2)c(S)cc1Cl (centres undefined) | > 100 | > 100 | > 100 | > 100 | > 100 | > 100 | > 100 | > 100 | > 100 | > 100 |  |  |  |  |  |  |  |  |  |  |
| Cc1cc2c(C(C)C)c(O)c(O)c(C=NCCO)c2c(O)c1-c1c(C)cc2c(C(C)C)c(O)c(O)c(C=NCCO)c2c1O | 5.07 | 5.79 | 4.98 | 3.03 | 3.58 | 9.63 | 16.3 | 3.03 | 8.25 | 9.51 |  |  |  |  |  |  |  |  |  |  |
| CO/C(=C/C(=O)C(Cl)(Cl)Cl)CC/C(=C\C(=O)C(Cl)(Cl)Cl)OC | 40.1 | 67.7 | 43.8 | 42.2 | 88.3 | > 100 | 51 | > 100 |  | 34.7 |  |  |  |  |  |  |  |  |  |  |
| CN1C[C@H]2[C@@H](C1=O)[C@H](c1ccccc1)ON2C | > 100 | > 100 | > 100 | > 100 | > 100 | > 100 | > 100 | > 100 | > 100 |  |  |  |  |  |  |  |  |  |  |  |
| COC(=O)[C@@]1(Cc2ccc(O)cc2)C[C@@H]2Cc3ccccc3N2N1 | > 100 | > 100 | 71.7 | > 100 | > 100 | > 100 | > 100 | > 100 |  |  |  |  |  |  |  |  |  |  |  |  |

| Structure (SMILES) | TGI [1] [µM] | TGI [2] [µM] | TGI [3] [µM] | TGI [4] [µM] | TGI [5] [µM] | TGI [6] [µM] | TGI [7] [µM] | TGI [8] [µM] | TGI [9] [µM] | TGI [10] [µM] | GI50 [3] [µM] | GI50 [5] [µM] | GI50 [6] [µM] | GI50 [8] [µM] | GI50 [10] [µM] | GI50 [1] [µM] | GI50 [2] [µM] | GI50 [4] [µM] | GI50 [7] [µM] | GI50 [9] [µM] |
| --- | --- | --- | --- | --- | --- | --- | --- | --- | --- | --- | --- | --- | --- | --- | --- | --- | --- | --- | --- | --- |
| COc1c2c(cc3c1OCO3)C13C=CC(OC)CC1N(CC3)C2 (centres undefined) | > 100 | > 100 | > 100 | > 100 | > 100 | > 100 | > 100 | > 100 | > 100 | > 100 |  |  |  |  |  |  |  |  |  |  |
| CC(=O)OCC1=C(C(=O)O)C(c2ccc3c(c2)OCO3)c2cc3c(cc2O1)OCO3 (centres undefined) | > 100 | > 100 | > 100 | > 100 | > 100 |  | > 100 | > 100 |  | > 100 |  |  |  |  |  |  |  |  |  |  |
| O=c1c2ccccc2nc2n1C(c1ccc([N+](=O)[O-])cc1)C2(c1ccccc1)c1ccccc1 (centres undefined) | > 100 | > 100 | > 100 | > 100 | > 100 | > 100 | > 100 | > 100 |  | > 100 |  |  |  |  |  |  |  |  |  |  |
| CCC(=O)NC(Nc1cccc(F)c1)(C(F)(F)F)C(F)(F)F | > 100 | > 100 | > 100 | > 100 | > 100 | > 100 | > 100 | > 100 | > 100 | > 100 |  |  |  |  |  |  |  |  |  |  |
| NC1(C(=O)O)CCc2ccc(N(CCCl)CCCl)cc2C1 (centres undefined) | > 100 | > 100 | > 100 | 1.69 |  | > 100 | > 100 | > 100 | > 100 | > 100 |  |  |  |  |  |  |  |  |  |  |
| CCCC(N)C(=O)c1ccccc1 (centres undefined) | > 100 | > 100 | > 100 | > 100 | > 100 | > 100 | > 100 | > 100 | > 100 | > 100 |  |  |  |  |  |  |  |  |  |  |
| O=C(Nc1ccc(Sc2ccc(N=Nc3c(O)c(S(=O)(=O)O)cc4cc(S(=O)(=O)O)ccc34)cc2)cc1)c1ccc(N=Nc2c(O)ccc3c(S(=O)(=O)O)cc(S(=O)(=O)O)cc23)cc1 | > 100 | 92.5 | > 100 | > 100 | 66.2 | > 100 | > 100 | 35 | > 100 | > 100 |  |  |  |  |  |  |  |  |  |  |
| Cc1cc(C)c2c(c1)C1=NCCN1C2(O)c1ccc(Cl)cc1 (centres undefined) | 28.6 | 31.4 | 31.9 | 26 | 28.4 | 33.1 | 29.7 | 29 |  | 27.6 |  |  |  |  |  |  |  |  |  |  |
| COC(=O)/C=C(/C(=O)OC)c1cc2ccc3c([nH]c4ccccc43)c(C)c-2c1 | 5.43 | 12 | 28.2 | 16.3 | 16 | 13.6 | 69.3 | 3.3 | 13 | > 100 |  |  |  |  |  |  |  |  |  |  |
| COc1cc(C(=O)C2C(=O)c3ccccc3C2C2(O)c3ccccc3CC2C(O)c2cc(OC)c(OC)c(OC)c2)cc(OC)c1OC (centres undefined) | > 100 | > 100 | > 100 | > 100 | > 100 | > 100 | > 100 | > 100 | > 100 | > 100 |  |  |  |  |  |  |  |  |  |  |
| N#CCCN(CCC#N)c1ccc(C(N=Nc2ccccc2)=Nc2ccc(Cl)cc2)cc1 | > 100 | > 100 | > 100 | > 100 | > 100 | > 100 | > 100 | > 100 | > 100 | > 100 |  |  |  |  |  |  |  |  |  |  |
| Fc1ccc(-c2nn3c(-c4cc(C(F)(F)F)cc(C(F)(F)F)c4)nnc3s2)cc1 | 3.93 | 2.42 |  | > 50 | > 50 | > 50 | > 50 | > 50 | > 50 | > 50 |  | > 50 | > 50 | > 50 | 1.78 | 1.22 | 1.16 | 1.7 | 1.48 | > 50 |
| N#CC(Nc1cccc(C(F)(F)F)c1)c1ccccc1C(F)(F)F (centres undefined) |  | 16.3 | 27.7 | 18.7 | 17.6 | 28.4 | 15.2 | 10.6 | 18.6 | 24.8 |  |  |  |  |  |  |  |  |  |  |
| Cc1c(-c2ccccc2)c(C#N)c2nnn(C3CCCCC3)c(=O)n12 | 80.8 | > 100 | > 100 | > 100 | > 100 | > 100 | > 100 | > 100 | > 100 | 71.7 |  |  |  |  |  |  |  |  |  |  |
| CC(C)(C)OC(=O)NCCC(=O)NC1(c2cc3ccccc3s2)CCCCC1 | 33.7 | 33.2 | 39 | 27 | 34.2 | 39.9 | 29.1 | 32.9 | 47.5 | 26.2 |  |  |  |  |  |  |  |  |  |  |
| CCCCCCCNC(P(=O)(O)O)P(=O)(O)O | > 100 | > 100 | > 100 | > 100 | > 100 | > 100 | > 100 | > 100 | > 100 |  |  |  |  |  |  |  |  |  |  |  |
